Consider two molecules from US11878972B2, “Treatment of neurological disorders” (TORQUR AG, priority 2016, dated 2024).

Series [1] has as its system 51Q-HTT-Exon1-eGFP transfected HEK cells. Briefly: Filter trap assay of mutHTT aggregates. It counts as cell-based, human. The note with it: 8 hours; Cpd. 3 400, 1230 nM; Cpd. 8 130, 1230 nM; INK128 100 nM; Rapamycin 400 nM. As to the method:
HEK cells were transiently transfected with pcDNA3.1/V5-His vector from Clontech (Mountain View, USA) containing the expression sequence for Exon1 of HTT with a 19Q (no aggregation) or 51Q extension and enhanced green fluorescence protein (eGFP) tag using Attractene Transfection Reagent (Qiagen, Netherlands). 1×10^6 cells were seeded in a 6 well plate. On the next day 2 μg DNA were mixed with 95.5 μl transfection media and 4.5 μl transfection reagent. After an incubation time of 15 min the mixture was added to the cells. After 72 hours cells were harvested or fixed for analysis.
HEK cells transfected with 19Q- or 51Q-HTT-Exon1-eGFP were treated with DMSO control. 51Q-HTT-Exon I-eGFP HEK cells form aggregates. These cells were treated with Cpd. 3 (400, 1230 nM), Cpd. […] After 30 min incubation on ice, cells were homogenized (Dounce Homogenizer, Thermo Fisher, USA). 50 μg of protein solution in PBS was supplemented with 2% SDS (Roth, Germany). Samples were sucked through a nitrocellulose membrane (0.45 μm) and washed twice with PBS buffer.

Series [2] deals with STHdh^Q7/Q7 and STHdh^Q111/Q111 cells. Briefly: PrestoBlue assay (cell viability/metabolic activity). The class given is cell-based, mouse. Conditions: for metabolic activity (PrestoBlue) at 72 hours: 1230 nM, STHdh^Q111/Q111; for mitochondrial activity: at lower concentration. The procedure: Cell viability/metabolic activity was detected using the PrestoBlue viability reagent (Invitrogen, USA) according to the manufacturer's instructions. […] 3 (130 nM, 1230 nM), Cpd. […] Non-toxic concentrations determined were transferred to primary neurons used later on in this study. […] At lower concentration of Cpd. 3 and Cpd. […] 8 in STHdh^Q111/Q111. […] Wild type cells are less sensitive to mTOR inhibition and 2.

In series [3] the test system is mTOR signaling (S6rP and 4E-BP phosphorylation) in STHdh^Q7/Q7 and STHdh^Q111/Q111 cells. The series is described as follows: mTOR signaling in STHdh cells (western blot). The class given is cell-based, mouse. The note with it: 4 hours.
Description: 8 inhibit mTOR signaling and induce autophagy in neuronal cell models of HD, treatment of STHdh^Q111/Q111 and STHdh^Q7/Q7 cells was employed. […] Cells were seeded in 10 cm dishes. When cells were about 80% confluent, cells were differentiated and treated with compounds at the same time. […] At the end of incubation time cells were washed with cold PBS buffer and lysed with 200 μl of RIPA buffer supplemented with 4% Complete protease inhibitor (Roche, Switzerland) and 10% PhosStop (Roche, Switzerland). After 30 min of incubation on ice, lysates were vortexed, centrifuged (20 min, 4° C., 16000 rpm) and supernatants were collected. […] 30 μg of protein per sample was analyzed by western blot as described above using the following primary antibodies:
For series [4], the system named is S6 phosphorylation (S235/236). The series is described as follows: mTOR signaling in brain samples of pilocarpine pre-treated and naïve mice (western blot). The class given is in vivo, mouse. Conditions: for decrease of S6 phosphorylation (S235/236) versus control: brain, 3 hours after single oral dose: Cpd. 3 40 mg/kg, Cpd. 8 25 mg/kg, everolimus 5 mg/kg. As to the method:
A ramping-up dosing protocol was used which has the advantage that pilocarpine can be individually applied according to the susceptibility of each mouse. Pilocarpine (Sigma-Aldrich, Germany) was administered to female NMRI mice intraperitoneally at a dose of 100 mg/kg (Pilo-SE group). […] To reduce peripheral side effects of pilocarpine, methylscopolamine (Sigma-Aldrich, Germany) was administered 30 minutes prior to the first injection of pilocarpine. Animals were continuously monitored and duration of convulsive SE was registered [referred to Racine's scale. SE onset was defined as continuous ongoing seizure activity following occurrence of one or two generalized tonic-clonic seizures [stage 4 or 5 on the Racine scale]. SE was characterized by head nodding in an upright (sitting) body position, Straub tail, and slight to moderate convulsions of forelimbs, sometimes interrupted by further generalized tonic-clonic seizures. In order to reduce mortality, SE was terminated by diazepam (10 mg/kg i.p.; diazepam-ratiopharm 10, injection solution) 90 min after SE onset. […] In the sham-SE group mice were treated with the same treatment scheme as the pilo-SE group but pilocarpine was replaced by 0.9% sodium chloride solution. The mortality in the pilo-SE model in mice is relatively high (overall about 50%) and can vary markedly between experimental groups/days. Therefore we had to start with a large number of mice for SE induction in order to reliably obtain a group size of 20-22 animals for the MEST.
Brain samples from pilocarpine treated mice and untreated mice were snap frozen and tissue was lysed in buffer containing 25 mM Tris-HCl, pH 8, 50 mM NaCl, 0.5% (w/v) sodium deoxycholate (DOC), and 0.5% (w/v) Triton X-100 and supplemented with complete protease inhibitor (Roche, Mannheim, Germany) and Phosphostop (NEB, USA). Disruption of cell lysates was performed by drawing up the cell suspension twenty times into a syringe with a small gauge needle (21 G) on ice. Protein concentrations in the lysates were determined by using the Pierce BCA Protein Assay kit (Thermo Scientific, Bonn, Germany) according to the manufacturer's instructions. […] Membranes were incubated with primary antibodies anti S6 1:1000, anti S6 Phospho Serin (240/244) 1:1000, anti S6 Phospho Serin (235/236) 1:2000 (NEB) and anti-Actin 1:100 (Sigma-Aldrich) for 1 h in 2% milk in PBST at room temperature (RT) and washed three times for 10 min in PBS-T. Secondary antibodies anti-rabbit-HRP 1:1000 (Dako, Hamburg, Germany) were incubated for 1 h in 2% milk in PBST at RT and washed three times for 10 min in PBST. Proteins were detected by enhanced chemiluminescence using SuperSignal West Femto Chemiluminescent Substrate (Thermo Scientific) and the ChemiDoc system (Bio-Rad, Munich, Germany) with QuantityOne software (Bio-Rad) according to the manufacturer's protocol. Relative protein expressions were quantified densitometrically with QuantityOne (Bio-Rad) software and calculated by normalization to the reference signals of actin with GraphPad Prism software (GraphPad, San Diego, CA, USA).
Pilocarpine pre-treated and naïve mice were treated with a single oral dose of Cpd. 3 (40 mg/kg), Cpd. 8 (25 mg/kg), everolimus (5 mg/kg) or vehicle. 5 mice per group were utilized and sacrificed after 3 hours.

Where [5] appears, read: epileptic (pilocarpine pre-treated) mice.

SMILES strings stand for the structures. “Also recorded” adds a separate entry of the source.

Consider `Nc1cc(C(F)F)c(-c2nc(N3C4CCC3COC4)nc(N3C4CCC3COC4)n2)cn1` [Compound 3, 5-(4-(3-oxa-8-azabicyclo[3.2.1]octan-8-yl)-6-(3-oxa-8-azabicyclo[3.2.1]octan-8-yl)-1,3,5-triazin-2-yl)-4-(difluoromethyl)pyridin-2-amine], for which the “mutHTT aggregates (filter trap)” value in series [1] is “significant reduction of cytotoxic mutHTT aggregates”. Moreover, in series [2], the “metabolic activity (PrestoBlue) at 72 hours” value is “slight inhibition; also recorded: decreased metabolic activity” and the mitochondrial activity entry is “slight increase in mitochondrial activity”. Also, the “mTOR signaling (S6rP phosphorylation and 4E-BP phosphorylation)” value in series [3] (Cpd. 3 200, 400, 1230 nM, Cpd. 8 130, 1230 nM, INK128 100 nM, rapamycin 400 nM) was “reduced S6rP phosphorylation and 4E-BP phosphorylation”. Also, the “decrease of S6 phosphorylation (S235/236) versus control” value (“decrease of S6 phosphorylation” below) in series [4] (setting [5]) worked out at 4.3 fold. In addition, the “S6 phosphorylation / mTOR signaling in brain (FIG. 3B)” value in series [4] (epileptic/pilocarpine pre-treated and naïve mice, single oral dose) was “significantly inhibited S6 phosphorylation in brain”. Also, the “decrease of S6 phosphorylation” value in series [4] (naïve mice) is reported as 4.6 fold.
`C[C@H]1COCCN1c1nc(-c2cnc(N)cc2C(F)F)nc(N2CCOCC2)n1` [Compound 8, (S)-4-(difluoromethyl)-5-(4-(3-methylmorpholino)-6-morpholino-1,3,5-triazin-2-yl)pyridin-2-amine]: in series [2], the “metabolic activity (PrestoBlue) at 72 hours” value is recorded as “not significantly” and the mitochondrial activity entry is reported as “slight increase in mitochondrial activity”. Further, the “low concentration at which an effect on mTOR signaling could already be observed” value in series [3] (STHdh^Q7/Q7 cells) came out at 130 nM. In addition, in series [4] (setting [5]), the “decrease of S6 phosphorylation” value was 2.8 fold. Also, the “decrease of S6 phosphorylation” value in series [4] (naïve mice) was found to be 10.9 fold.
